Legend:
[1] = test system: MCF-7 human breast adenocarcinoma cell line; experiment: Maximal tolerated dose in vitro (resazurin reduction test), MCF-7; type: cell-based; details: MCF-7, 48 h
Excerpt: (§1) The human cell lines breast cancer adenocarcinoma MCF-7, prostatic adenocarcinoma PC-3, lung carcinoma A-549 and colon adenocarcinoma DLD-1 together with the mouse cell line L-929 (fibrobast) were obtained from the European Collection of Cell Cultures (ECACC, Salisbury, United Kingdom). Normal human fibroblasts were purchased from Biopredic International (Rennes, France). The M4BEU human melanoma cell line was generously supplied by Dr. J F Doré (Institut National de la Santé et de la Recherche Médicale-INSERM, Unit 218, Lyon, France). All the cell lines were grown in minimum essential medium with Earle's salts (Gibco-BRL, Paisley, Scotland) supplemented with 10% fetal calf serum (Sigma-Aldrich), 1×solution of vitamins (Gibco-BRL), 1 mM sodium pyruvate (Gibco-BRL), 1×non-essential amino acids (Gibco-BRL) and 2 mg of gentamicin base (Gibco-BRL). Cells were cultured in a humidified atmosphere at 37° C. in 5% CO2.

[2] = test system: PC-3 human prostatic adenocarcinoma cell line; experiment: Maximal tolerated dose in vitro (resazurin reduction test), PC-3; type: cell-based; details: PC-3, 48 h
Excerpt: as §1

[3] = test system: A-549 human lung carcinoma cell line; experiment: Maximal tolerated dose in vitro (resazurin reduction test), A-549; type: cell-based; details: A-549, 48 h
Excerpt: as §1

[4] = test system: DLD-1 human colon adenocarcinoma cell line; experiment: Maximal tolerated dose in vitro (resazurin reduction test), DLD-1; type: cell-based; details: DLD-1, 48 h
Excerpt: as §1

[5] = test system: M4BEU human melanoma cell line; experiment: Maximal tolerated dose in vitro (resazurin reduction test), M4BEU; type: cell-based; details: 48 h
Excerpt: as §1

normal human fibroblasts = experiment: Maximal tolerated dose in vitro (resazurin reduction test), human fibroblast; type: cell-based; details: 48 h
Excerpt: as §1

[6] = test system: L-929 mouse subcutaneous connective tissue cell line; experiment: Maximal tolerated dose in vitro (resazurin reduction test), L-929; type: cell-based; details: L-929, 48 h
Excerpt: as §1

[7] = test system: normal and cancerous cell lines; experiment: In vitro toxicity / MTD, stated overall for the cell lines tested; type: cell-based
Experimental: The screening of terpene potentiators in accordance with the present invention is carried out by the evaluation of several parameters including: i) the cytotoxicity (maximal tolerated dose); and iii) the effect on the intracellular glutathione content; and iv) the synergism in combination with antitumor agents. Briefly, the cytotoxicity or the cell growth inhibition induced by the terpenes is evaluated on various cell lines in order to determine the maximal tolerated dose (MTD) or non-toxic dose. […] The cell growth is measured by the fluorescence induced by the metabolic transformation of resazurin™ in resorufin™, which is proportional to living cells (see materials and methods). […] Moreover, β-caryophyllene is not toxic in mice at >500 mg/kg. It is shown herein that β-caryophyllene is having a synergistic action on the treatment of cancer when used in combination with antitumoral agents such as paclitaxel. To assess the synergistic effect of terpenes such as β-caryophyllene, the cancer cells are treated with growing concentrations of antitumoral agents (paclitaxel) with or without terpene (β-caryophyllene).
The in vitro toxicity of β-caryophyllene has been evaluated from 5 cell lines: human adenocarcinoma, MCF-7; human prostatic adenocarcinoma, PC-3; human lung carcinoma, A-549 and human colon adenocarcinoma, DLD-1 and from human and mouse fibroblasts.
Cell survival has been evaluated after receiving an increasing dose of β-caryophyllene between 6.25 and 800 µM. It is shown in table I that β-caryophyllene is not toxic in vitro in a dose less than […].

MCF-7 cells = experiment: Synergistic effect in combination with paclitaxel, MCF-7; type: cell-based, human; details: MCF-7, β-caryophyllene combined with paclitaxel
Experimental: The resazurin reduction test (RRT) was carried out according to the protocol as described by O'Brien et al. Briefly, plates were rinsed by 200 μl PBS (37° C., Gibco) at 37° C. using an automatic microplate washer (Cell Wash™, Labsystems, Helsinki, Finland) and emptied by overturning on absorbent toweling. Then, 150 μl of a 25μg/ml solution of resazurin in MEM without Phenol red was added in each well using an automatic microvolume dispenser (Multidrop 384™ Labsystems). The plates were incubated 1 h at 37° C. in a humidified atmosphere with 5% of CO2 for fluorescence development by living cells. Fluorescence was then measured on the automated 96-well plate reader Fluoroskan Ascent FL™ (Labsystems) using an excitation wavelength of 530 nm and an emission one of 590 nm. The fluorescence is proportional to the number of living cells in the well.
Briefly, the cells were plated at a density of 5×10^3 cells per well in 96-well microplates (Nunclon™, Nunc) in 100 μl of culture medium and were allowed to adhere for 16 h before treatment. […] The proliferation of tumour cells was assessed using resazurin reduction test as described above. The synergistic effect of β-caryophyllene was determined by the comparison between the percentage of cells growth inhibition induced by the paclitaxel used alone and the one induced by the combination of paclitaxel and β-caryophyllene.

[8] = studies performed by the National Cancer Institute; cited from earlier work

C=C1CC/C=C(\C)CC[C@@H]2[C@@H]1CC2(C)C [β-caryophyllene]
MTD (maximal tolerated dose or maximal no toxic dose) [1]: >800 µM | MTD (maximal tolerated dose or maximal no toxic dose) [2]: >800 µM | MTD (maximal tolerated dose or maximal no toxic dose) [3]: >800 µM | MTD (maximal tolerated dose or maximal no toxic dose) [4]: >800 µM | MTD (maximal tolerated dose or maximal no toxic dose) [5]: >800 µM | MTD (maximal tolerated dose or maximal no toxic dose) (normal human fibroblasts): >800 µM | MTD (maximal tolerated dose or maximal no toxic dose) [6]: >800 µM | cytotoxicity against normal and cancerous cell lines tested in vitro [7]: does not induce cytotoxicity | in vitro toxicity (cell survival) ([7]; dose less than 800, doses tested between 6.25 and 800): not toxic | MTD (higher concentration that does not induce cell growth inhibition) ([7]; various cell lines, stated overall): greater than 800 μM | increase of cell growth inhibition induced by paclitaxel (MCF-7 cells): about 40% | mutagenicity [8]: not mutagenic

From patent US20040235785A1, “Potentiator of antitumoral agents in the treatment of cancer” (priority 2001, published 2004)
